Measurements taken from patent publication EP0908457B1, “3-(1,2-benzisothiazol- and isoxazol-5-Y1)-2,4(1H,3H)-pyrimidinedione or thione and 3-(1,2-benzisothiazol- and isoxazol-5-y1)-4(3H)-pyrimidinone or thione herbicidal agents” (BASF AKTIENGESELLSCHAFT, priority 1997, dated 1999).

Key:
Sagittaria pygmaea, L. = experiment: Preemergence weed control under flooded paddy conditions, SAGPY (Arrowhead (Pygmaea)); assay type: in vivo; settings: flooded paddy
[1] = tested on: Echinochloa oryzoides (Ard.) Fritsch.; experiment: Preemergence weed control under flooded paddy conditions, ECHORC (Watergrass (Calif.)); assay type: in vivo; settings: flooded paddy
[2] = tested on: Cyperus serotinus, Rottb.; experiment: Preemergence weed control under flooded paddy conditions, CYPSE (Flatsedge); assay type: in vivo
[3] = tested on: Oryza sativa, (L.) Tebonnet; experiment: Rice tolerance to post-transplant applications under flooded paddy conditions (Example 187), ORYSAT (Rice, Tebonnet)
Cyperus iria = experiment: Preemergence weed control under flooded paddy conditions, CYPIR (Rice Flatsedge); assay type: in vivo; settings: flooded paddy
[4] = tested on: Monochoria vaginalis, Presl.; experiment: Preemergence weed control under flooded paddy conditions, MOOVA (Monochoria); assay type: in vivo; settings: flooded paddy
[5] = Rate 0.0320 kg/ha, preemergence, rated three to four weeks after treatment
[6] = Rate 0.0620 kg/ha, preemergence, rated three to four weeks after treatment
[7] = Rate 0.1250 kg/ha, preemergence, rated three to four weeks after treatment
[8] = Rate 0.2500 kg/ha, preemergence, rated three to four weeks after treatment
[9] = Rate 0.0320 kg/ha, rated three to four weeks after treatment
[10] = Rate 0.0620 kg/ha, rated three to four weeks after treatment
[11] = Rate 0.1250 kg/ha, rated three to four weeks after treatment
[12] = Rate 0.2500 kg/ha, rated three to four weeks after treatment
[13] = Rate 0.0320 kg/ha, preemergence weeds, rated three to four weeks after treatment
[14] = Rate 0.0620 kg/ha, preemergence weeds, rated three to four weeks after treatment
[15] = Rate 0.1250 kg/ha, preemergence weeds, rated three to four weeks after treatment
[16] = Rate 0.2500 kg/ha, preemergence weeds, rated three to four weeks after treatment
[17] = Rate 0.0620 kg/ha, preemergence, rated 3-4 weeks after treatment
[18] = Rate 0.1250 kg/ha, preemergence, rated 3-4 weeks after treatment
[19] = Rate 0.2500 kg/ha, preemergence, rated 3-4 weeks after treatment
[20] = Rate 0.5000 kg/ha, preemergence, rated 3-4 weeks after treatment
Note: meaning of each grade not given here.

## Cc1cccc(COCc2nsc3ccc(-n4c(=O)cc(C(F)(F)F)n(C)c4=O)cc23)c1 [Example 587, 2,4(1H,3H)-Pyrimidinedione, 1-methyl-3-{3-{[(m-methylbenzyl)oxy]methyl}-1,2-benzisothiazol-5-yl}-6-(trifluoromethyl)-]
Sagittaria pygmaea, L.; [5]
  herbicidal effect rating, SAGPY: 0.0
Sagittaria pygmaea, L.; [6]
  herbicidal effect rating, SAGPY: 2.0
Sagittaria pygmaea, L.; [7]
  herbicidal effect rating, SAGPY: 5.0
Sagittaria pygmaea, L.; [8]
  herbicidal effect rating, SAGPY: 5.0
[1]; [5]
  herbicidal effect rating, ECHORC: 7.0
[1]; [6]
  herbicidal effect rating, ECHORC: 7.0
[1]; [7]
  herbicidal effect rating, ECHORC: 9.0
[1]; [8]
  herbicidal effect rating, ECHORC: 9.0
[2]; [5]
  herbicidal effect rating, CYPSE: 0.0
[2]; [7]
  herbicidal effect rating, CYPSE: 0.0
[3]; [9]
  herbicidal effect rating ORYSAT: 4.0
[3]; [10]
  herbicidal effect rating ORYSAT: 4.0
[3]; [11]
  herbicidal effect rating ORYSAT: 4.0
[3]; [12]
  herbicidal effect rating ORYSAT: 5.0
Cyperus iria; [5]
  herbicidal effect rating, CYPIR: 4.0
Cyperus iria; [6]
  herbicidal effect rating, CYPIR: 8.0
Cyperus iria; [7]
  herbicidal effect rating, CYPIR: 9.0
Cyperus iria; [8]
  herbicidal effect rating, CYPIR: 9.0
[4]; [5]
  herbicidal effect rating, MOOVA: 5.0
[4]; [6]
  herbicidal effect rating, MOOVA: 5.0
[4]; [7]
  herbicidal effect rating, MOOVA: 9.0
[4]; [8]
  herbicidal effect rating, MOOVA: 9.0

## Cn1c(C(F)(F)F)cc(=O)n(-c2ccc3snc(C(=O)NS(=O)(=O)Cc4ccccc4)c3c2)c1=O [Example 341, 1,2-Benzisothiazole-3-carboxamide, N-(benzylsulfonyl)-5-[3,6-dihydro-3-methyl-2,6-dioxo-4-(trifluoromethyl)-1(2H)-pyrimidinyl]-]
Sagittaria pygmaea, L.; [13]
  herbicidal effect rating, SAGPY: 1.0
Sagittaria pygmaea, L.; [14]
  herbicidal effect rating, SAGPY: 4.5
Sagittaria pygmaea, L.; [15]
  herbicidal effect rating, SAGPY: 4.5
Sagittaria pygmaea, L.; [16]
  herbicidal effect rating, SAGPY: 4.5
[1]; [13]
  herbicidal effect rating, ECHORC: 3.0
[1]; [14]
  herbicidal effect rating, ECHORC: 5.5
[1]; [15]
  herbicidal effect rating, ECHORC: 8.0
[1]; [16]
  herbicidal effect rating, ECHORC: 8.5
[2]; [13]
  herbicidal effect rating, CYPSE: 0.0
[2]; [14]
  herbicidal effect rating, CYPSE: 0.0
[2]; [15]
  herbicidal effect rating, CYPSE: 2.5
[2]; [16]
  herbicidal effect rating, CYPSE: 3.5
[3]; [9]
  herbicidal effect rating ORYSAT: 1.5
[3]; [10]
  herbicidal effect rating ORYSAT: 2.5
[3]; [11]
  herbicidal effect rating ORYSAT: 3.0
[3]; [12]
  herbicidal effect rating ORYSAT: 3.5
Cyperus iria; [13]
  herbicidal effect rating, CYPIR: 1.0
Cyperus iria; [14]
  herbicidal effect rating, CYPIR: 2.0
Cyperus iria; [15]
  herbicidal effect rating, CYPIR: 3.5
Cyperus iria; [16]
  herbicidal effect rating, CYPIR: 4.0
[4]; [13]
  herbicidal effect rating, MOOVA: 7.0
[4]; [14]
  herbicidal effect rating, MOOVA: 9.0
[4]; [15]
  herbicidal effect rating, MOOVA: 9.0
[4]; [16]
  herbicidal effect rating, MOOVA: 9.0

## CCOC(=O)C(F)(F)Oc1ccc(C)cc1-c1nsc2ccc(-n3c(=O)cc(C(F)(F)F)n(C)c3=O)cc12 [Example 559, Acetic acid, {{2-{5-[3,6-dihydro-3-methyl-2,6-dioxo-4-(trifluoromethyl)-1(2H)-pyrimidinyl]-1,2-benzisothiazol-3-yl}-p-tolyl}oxy}difluoro-, ethyl ester]
Sagittaria pygmaea, L.; [17]
  herbicidal effect rating, SAGPY: 0.0
Sagittaria pygmaea, L.; [18]
  herbicidal effect rating, SAGPY: 0.0
Sagittaria pygmaea, L.; [19]
  herbicidal effect rating, SAGPY: 0.0
Sagittaria pygmaea, L.; [20]
  herbicidal effect rating, SAGPY: 0.0
[1]; [17]
  herbicidal effect rating, ECHORC: 3.0
[1]; [18]
  herbicidal effect rating, ECHORC: 3.0
[1]; [19]
  herbicidal effect rating, ECHORC: 6.0
[1]; [20]
  herbicidal effect rating, ECHORC: 9.0
[2]; [17]
  herbicidal effect rating, CYPSE: 0.0
[2]; [18]
  herbicidal effect rating, CYPSE: 0.0
[2]; [19]
  herbicidal effect rating, CYPSE: 9.0
[2]; [20]
  herbicidal effect rating, CYPSE: 9.0
[3]; Rate 0.0620 kg/ha, rated 3-4 weeks after treatment
  herbicidal effect rating ORYSAT: 1.0
[3]; Rate 0.1250 kg/ha, rated 3-4 weeks after treatment
  herbicidal effect rating ORYSAT: 1.0
[3]; Rate 0.2500 kg/ha, rated 3-4 weeks after treatment
  herbicidal effect rating ORYSAT: 2.0
[3]; Rate 0.5000 kg/ha, rated 3-4 weeks after treatment
  herbicidal effect rating ORYSAT: 2.0
Cyperus iria; [17]
  herbicidal effect rating, CYPIR: 0.0
Cyperus iria; [18]
  herbicidal effect rating, CYPIR: 0.0
Cyperus iria; [19]
  herbicidal effect rating, CYPIR: 0.0
Cyperus iria; [20]
  herbicidal effect rating, CYPIR: 4.0
[4]; [17]
  herbicidal effect rating, MOOVA: 9.0
[4]; [18]
  herbicidal effect rating, MOOVA: 9.0
[4]; [19]
  herbicidal effect rating, MOOVA: 9.0
[4]; [20]
  herbicidal effect rating, MOOVA: 9.0

## COC(=O)c1nsc2ccc(-n3c(=O)cc(C(F)(F)F)n(C)c3=O)cc12 [Example 318, 1,2-Benzisothiazole-3-carboxylic acid, 5-[3,6-dihydro-3-methyl-2,6-dioxo-4-(trifluoromethyl)-1(2H)-pyrimidinyl]-, methyl ester]
Sagittaria pygmaea, L.; [13]
  herbicidal effect rating, SAGPY: 0.0
Sagittaria pygmaea, L.; [14]
  herbicidal effect rating, SAGPY: 0.0
Sagittaria pygmaea, L.; [15]
  herbicidal effect rating, SAGPY: 0.0
Sagittaria pygmaea, L.; [16]
  herbicidal effect rating, SAGPY: 4.0
[1]; [13]
  herbicidal effect rating, ECHORC: 0.0
[1]; [14]
  herbicidal effect rating, ECHORC: 3.0
[1]; [15]
  herbicidal effect rating, ECHORC: 5.0
[1]; [16]
  herbicidal effect rating, ECHORC: 5.0
[2]; [13]
  herbicidal effect rating, CYPSE: 0.0
[2]; [14]
  herbicidal effect rating, CYPSE: 0.0
[2]; [15]
  herbicidal effect rating, CYPSE: 0.0
[2]; [16]
  herbicidal effect rating, CYPSE: 9.0
[3]; [9]
  herbicidal effect rating ORYSAT: 5.0
[3]; [10]
  herbicidal effect rating ORYSAT: 5.0
[3]; [11]
  herbicidal effect rating ORYSAT: 5.0
[3]; [12]
  herbicidal effect rating ORYSAT: 9.0
Cyperus iria; [13]
  herbicidal effect rating, CYPIR: 0.0
Cyperus iria; [14]
  herbicidal effect rating, CYPIR: 2.0
Cyperus iria; [15]
  herbicidal effect rating, CYPIR: 5.0
Cyperus iria; [16]
  herbicidal effect rating, CYPIR: 6.0
[4]; [13]
  herbicidal effect rating, MOOVA: 4.0
[4]; [14]
  herbicidal effect rating, MOOVA: 6.0
[4]; [15]
  herbicidal effect rating, MOOVA: 9.0
[4]; [16]
  herbicidal effect rating, MOOVA: 9.0
